Data from patent US12521439B2, “Methods and materials for modulating Nrf2 pathway” (The General Hospital Corporation, priority 2019, dated 2026).

Legend:
HO1, NQO1, TXNRD2 mRNA = assay: qRT-PCR of Nrf2 target genes in cancer cells; type: cell-based, human
Procedure: Real-time qRT-PCR: Total RNA isolation from cultured cells was performed using RNeasy kit (Qiagen), followed by reverse transcription with OneScript cDNA synthesis Kit (ABM). mRNA expression of different genes was then analyzed by quantitative PCR using PowerUp SYBR Green Master Mix (Applied Biosystems) and performed using a QuantStudio3 real-time PCR system (Applied Biosystems). Primer sequences for HO1, NQO1, TXNRD2 were obtained from the MGH primer bank and were as follows: HO1 Forward, 5′-[…]-3′ and reverse 5′-[…]-3′; NQO1 Forward 5′-[…]-3′ and reverse 5′-[…]-3′ and Txnrd2 forward 5′-[…]-3 and reverse 5′-[…]. Oligonucleotides were synthesized by the CCIB DNA Core Facility at Massachusetts General Hospital. Expression of human GAPDH was used to mRNA normalization and relative mRNA expression was calculated using the comparative Ct method.

[1] = Pharmacokinetics after single i.p. administration; type: in vivo, male Swiss Albino mice
Procedure: Pharmacokinetics studies: These studies were performed by SAI Lifesciences using Male Swiss Albino mice. OBT was resuspended in a solution formulation of 10% DMA, 10% EtOH, 10% PEG400 in 70% of (2-hydroxypropyl)-[…] (HPβCD). OBT was administered by intraperitoneal (i.p.) injection at 7.5 mg/kg. Blood samples were collected from mice, at 0, 0.08, 0.25, 0.5, 1, 2, 4, 8 and 24 hr. Immediately after blood collection, plasma was harvested by centrifugation and stored until analysis. After collection of blood, brain samples were collected from each mouse at 0.5, 4 and 24 h. Tissue samples were homogenized using ice-cold phosphate buffer saline (pH7.4) and homogenates were stored until analysis. Total homogenate volume was three times the tissue weight. Plasma samples were quantified by LC-MS/MS method (LLOQ=1.00 ng/mL) for plasma and brain.

CT2A mouse glioma cells = assay: Cytokine/chemokine array of glioma cell lysates; type: cell-based; details: OBT 4 μM, 24 hrs
Procedure: To evaluate the effect of OBT on glioma secretome, CT2A mouse glioma cells were treated with OBT (4 μM) for 24 hrs and analyzed cell lysates by cytokine/chemokine array. GBM cells responded to OBT, Nrf2 and ROS induction, by activating several cytokines known to be involved in immune cell chemotaxis and migration (CCL2, CXCL10, IL-6). […] These innate immunity-related factors may directly contribute to control tumor growth or shape the development of adaptive immunity. Thus, OBT can induce factors that induces activation of tumor immune response.

ARE (Nrf2 pathway) = assay: ARE-Gluc luciferase reporter (normalized to SV40-Vluc); type: cell-based, human
Excerpt: DNA expression constructs: ARE reporter was designed and generated based on our previously published reporter for monitoring of the transcription factor Nuclear Factor Kappa B (NFkB). NFkB TRE elements were removed and replaced with four copies of the ARE enhancer sequence. This reporter consists of a CSCW lentivirus vector in which we have introduced two copies of the 1.2 kb chicken beta-globin (HS4) insulator elements, a TATA box acting as a minimal promoter upstream of the secreted Gaussia luciferase (Gluc). pcDNA3-HA2-Keap1 (Addgene plasmid #21556) and pcDNA3-HA2-Keap1 delta BTB (Addgene plasmid #21593) were a gift from Yue Xiong^2. pHAGE DN Cullin 3 (DN-CUL3) was a gift from Stephen Elledge (Addgene plasmid #41913). Constructs expressing constitutively active Gluc, Firefly luciferase (Fluc) and Vargula luciferase (Vluc) were previously describe. MISSION shRNA Bacterial Glycerol Stocks for Keap1 as well as a non-target shRNA were obtained from Sigma. Transfection of plasmid DNA was performed using Lipofectamine 2000 (Invitrogen) as per manufacturer's guidelines. Lentivirus packaging and titration was performed in 293T cells by the MGH viral vector core facility following standard protocols. Keap1 mutant C151S plasmid was kindly provided by Dr. Wooyoung Hur.
Luciferase assay: Coelenterazine (20 μM; Nanolight), The Gluc substrate was added to a 25 μL aliquot of conditioned medium and photon counts were measured using a luminometer. Similarly, the secreted Vluc activity was measured by adding its substrate vargulin (5 ng/mL; Nanolight). Cells stably expressing Gluc under the ARE enhancer sequence and Vluc under the constitutively active SV40 minimal promoter were used to determine the ARE reporter activity. The normalized Gluc/Vluc ratio was used as a marker for ARE activation.

Which results are given for `COC1=CC(=O)C(O)=C/C1=C/C=C/c1ccccc1` [OBT, (Z)-2-hydroxy-5-methoxy-4-((E)-3-phenylallylidene)cyclohexa-2,5-dien-1-one]?
NQO1 and TXNRD2 mRNA (HO1, NQO1, TXNRD2 mRNA; U87 and MDA-MB-231 cells): upregulated; HO1 mRNA expression (HO1, NQO1, TXNRD2 mRNA; different cancer cells, 8 hours, normalized to GAPDH): strong increase; Vss relative to normal volume of total body water (0.7 L/kg) ([1]; 7.5 mg/kg i.p.): 3 fold; systemic plasma clearance ([1]; 7.5 mg/kg i.p.): high; time up to which plasma concentrations were detected ([1]; 7.5 mg/kg i.p., LC-MS/MS): up to 24 hrs; blood-brain barrier penetration ([1]; intact BBB): efficiently penetrates; Kp at 0.5 h ([1]; male, Swiss Albino, mouse, brain, ip, 7.5 mg/kg, 0.5 hr after single i.p. dose, read-out: brain-to-plasma ratio): 0.27; Kp at 4 h ([1]; male, Swiss Albino, mouse, brain, ip, 7.5 mg/kg, 4 hrs after single i.p. dose, read-out: brain-to-plasma ratio): 0.5; Tmax ([1]; male, Swiss Albino, mouse, ip, plasma, 7.5 mg/kg i.p.): 30 min; half-life ([1]; male, Swiss Albino, mouse, plasma, ip, 7.5 mg/kg i.p., read-out: terminal plasma half-life): 24 min; cytokines involved in immune response modulation (CD40, CXCL2, CCL5, CXCL-10, IL-6) (CT2A mouse glioma cells): induced secretion; OBT-induced ARE activation and loss of cell viability with thiol antioxidants (ARE (Nrf2 pathway); addition of NAC, DTT, GSH, U87): completely reversed; OBT-induced ARE activation and loss of cell viability with Trolox (ARE (Nrf2 pathway); addition of Trolox, U87): only partially; ARE luciferase reporter activity (ARE (Nrf2 pathway); sub-toxic doses, higher than positive control tBHQ, U87 and MDA-MB-231): strongly activated
